Patent US10980764B1, “Exogenous ketone supplements for reducing anxiety-related behavior” (priority 2016, dated 2021)

What was measured:
SPD rats [1] = test: EPM after 7 days oral gavage, SPD rats, Study 3; type: in vivo, rat; conditions: 7 days gavage 5 g/kg b.w./day
Method: (§1) Generally, exogenous ketone supplementation was tested by adding to food and feeding chronically for 83 days in SPD rats and administering sub-chronically for 7 days in both rat models by daily intragastric gavage bolus, followed by assessment of anxiety measures on EPM. The groups included standard diet (SD) or SD+ketone supplementation.
(§2) EPM (Coulbourn Instruments) was used to assess anxiety-related behavior of the rats after 83 days of chronic feeding or after 7 days of oral gavage. EPM experiments were carried out under non-stress conditions (in dimly lit and quiet room) between 12.00 and 14.00 hours.
(§3) The rats were transferred in their home cage to the experimental room 30 min prior to beginning the experiment. Briefly, rats were placed in the intersection of the four arms of the EPM, facing the open arm opposite to where the experimenter was and their behavior was recorded for 5 minutes. The amount of time spent and number of entries made on the open arms, closed arms and the center zones were video recorded. Latency to entry into the closed arms and the distance travelled in each zones was also measured in chronically treated SPD rats. […] At the end of the 5-minute test, the rats were removed from the maze and placed back into their home cage. The maze was cleaned with 70% alcohol and after it with tap water and dried with paper towel between rats. The primary method for data collection was a video-tracking system with computer interface and video camera (SMART V3.0 PLATFORM, Panlab, Harvard Apparatus, USA), to automatically collect behavioral data in SPD rats. A blinded observer was present in the testing room separated from the maze by a curtain, and collected EPM data in both SPD and WAG/Rij animals.
(§4) Results were considered significant when p<0.05.

[2] = Blood βHB and glucose levels (Precision Xtra), SPD rats, Study 3
Source text: A total of 48 male SPD rats were fed for 83 days with either standard rodent chow (2018 Teklad Global 18% Protein Rodent Diet (#2018), Harlan) (SD/control; n=9) or SD+ketone supplementation. […] Higher dose was used for chronic administration, as the rats were consuming food-integrated ketone supplementation throughout the day, not at a single time point.
In order to familiarize the animals to the intragastric gavage method, water was gavaged for 5 days prior to ketone supplementation.
(§5) In the chronic feeding study, blood βHB and glucose levels were measured 24 hours before the 1st day of ketone treatments (baseline levels) and at the 13th week after the EPM experiment. In the 7-day oral gavage studies, blood βHB and glucose levels were measured 24 hours before the 1st day of ketone treatments (baseline levels; SPD and WAG/Rij rats), 24 hours after the first gavage, and 60 min after gavage on the 7th day (SPD and WAG/Rij rats). Whole blood samples (10 μL) were taken from the saphenous vein for analysis of blood glucose (mg/dl) and βHB (mmol/1) levels with the commercially available glucose and ketone (βHB) monitoring system Precision Xtra™ (Abbott Laboratories, Abbott Park, Ill., USA).
(§6) All data are presented as the mean±standard error of the mean (SEM). The effects of ketone supplementations on anxiety-related behavior were compared, as well as on blood βHB and glucose levels to control or/and baseline levels. Data analysis was performed using GraphPad PRISM version 6.0a. Results were considered significant when p<0.05. Significance was determined by one-way ANOVA with Fisher s LSD test for the behavioral data. Blood ketone, blood glucose, and body weight change were compared using a two-way ANOVA with Tukey's multiple comparisons test.

[3] = Blood βHB and glucose levels (Precision Xtra), WAG/Rij rats, Study 3
Method: For the sub-chronic gavage administration, the gavage dose was used that induced desired elevation of blood ketone based on the current inventors' previous studies (Kesl et al. 2016).
as §5, §6

SPD rats [4] = test: EPM after 83 days chronic feeding, SPD rats, Study 3; type: in vivo, rat; conditions: chronic feeding 83 days, compared to control (SD)
Method: as §1, §2, §3, §4

[5] = test system: Sprague-Dawley (SPD) rats; test: Elevated plus maze (EPM) after 83 days chronic feeding, Study 1; type: in vivo, rat; conditions: compared to control (SD)
Method: Generally, exogenous ketone supplements were tested and fed chronically for 83 days and administered sub-chronically for 7 days by gavage, followed by assessment of anxiety measures on elevated plus maze (EPM) on 97 male SPD rats.
In order to familiarize the animals to the intragastric gavage method, tap water was gavaged for 5 days before ketone supplementation. A total of 48 male SPD rats were fed for 83 days with either standard rodent chow (SD)+water application (˜25 g/kg b.w. water/day) (SD/control group; n=9) or SD+ketone supplementation by gavage.
(§7) EPM (COULBOURN Instruments) was used to assess anxiety-related behavior of the rats after 83 days of chronic feeding or after 7 days of oral gavage. EPM experiments were carried out under non-stressful conditions (in a dimly lit and quiet room) between 12.00 and 14.00 hours.
(§8) The rats were transferred in their home cage to the experimental room 30 min prior to beginning the experiment. Briefly, rats were placed in the intersection of the four arms of the EPM, facing the open arm opposite to where the experimenter was and their behavior was recorded for 5 minutes. The amount of time spent and number of entries made on the open arms, closed arms and the center zones were recorded. Latency to entry into the closed arms and the distance travelled in each zones was also measured in chronically treated SPD rats. Notes were made on other ethological measures such as number of rears, head dips, fecal boli, and freezing, or stretched-attend postures.
(§9) At the end of the 5-minute test the rats were removed from the maze and placed back into their home cage. The maze was cleaned with 70% alcohol and after it with tap water and dried with paper towel between rats. The primary method for data collection was a video-tracking system with computer interface and video camera (SMART V3.0 PLATFORM, PANLAB, Harvard Apparatus, USA), to automatically collect behavioral data in SPD rats. A blinded observer was present in the testing room separated from the maze by a curtain, and manually collected EPM data in both SPD and WAG/Rij animals at the end of treatments.
(§10) All data are presented as the mean±standard error of the mean (SEM). The effects of ketone supplementations on anxiety level were compared, as well as on blood βHB and glucose levels to control or/and baseline levels. Data analysis was performed using GraphPad PRISM version 6.0a. Results were considered significant when p<0.05. Significance was determined by unpaired t-test. Blood ketone, blood glucose, and body weight change were compared using a two-way ANOVA with Tukey's multiple comparisons test and unpaired t-test.

[6] = test system: Sprague-Dawley (SPD) rats; test: EPM after 7 days oral gavage, SPD rats, Study 1; type: in vivo, rat; conditions: compared to control (SD); for Time spent in the center: 7 days (gavage 5 g/kg b.w./day or KD fed)
Method: as §7, §8, §9, §10

## CC(=O)CC(=O)OCCC(C)OC(=O)CC(C)=O (stereo not drawn) [KE, 1,3-butanediol-acetoacetate diester]
SPD rats [1]; compared to control
  Entries to the closed arms: less frequent
  Time spent in the center: decreased
  Time spent in the open arms: increased
[2]; SPD rats, 24 hours after a single gavage, compared to control
  Blood βHB levels: elevated
[2]; SPD rats, after 13 weeks of chronic feeding
  Blood glucose: lower
[2]; SPD rats, after 83 days of chronic feeding, compared to control
  Blood βHB levels: significantly elevated
[2]; SPD rats, sub-chronic, at 24 hours, compared to control
  Blood glucose levels: lower
[3]; WAG/Rij rats, after 24h, compared to baseline levels
  Glucose levels: lower
[3]; WAG/Rij rats, after 7 days compared to the level at 24h
  Glucose levels: elevated
[3]; WAG/Rij rats, after 7 days of gavage, compared to baseline, 24 hours and control
  Blood βHB: elevated
SPD rats [4]
  Distance traveled in the closed arms: significantly less
  Time spent in the closed arms: significantly less
[5]; chronic feeding 83 days
  Distance traveled in the closed arms: significantly less
  Latency to first entrance of closed arms: significantly greater
[6]
  Time spent in the center: decreased
[6]; 7 days gavage 5 g/kg b.w./day
  Time spent in the open arms: increased

## Na^+/K^+-βHB mineral salt [KS]
SPD rats [1]; compared to control
  Entries to the closed arms: less frequent
  Time spent in the center: decreased
SPD rats [1]; compared to control (SD)
  Entries to the center: fewer times
[2]; rat, in vivo
  Blood βHB: elevated
[3]; rat, in vivo
  Blood βHB: elevated
SPD rats [4]
  Distance traveled in the center: more
  Distance traveled in the closed arms: significantly less
  Distance traveled in the open arms: significantly greater
  Time spent in the center: significantly more
  Time spent in the closed arms: significantly less
[5]; chronic feeding 83 days (~25 g/kg b.w./day; LKE ~10)
  Time spent in the open arms: significantly more
[5]; chronic feeding 83 days
  Distance traveled in the center: more
  Distance traveled in the closed arms: significantly less
  Distance traveled in the open arms: significantly greater
  Latency to first entrance of closed arms: significantly greater
  Time spent in the center: significantly more
  Time spent in the closed arms: significantly less
[6]
  Time spent in the center: decreased
[6]; 7 days gavage 5 g/kg b.w./day
  Entries to the center: fewer times
  Entries to the closed arms: less frequent
